According to PubChem BioAssay (NCI):
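Assay format: 96-well plates, 48-hour exposure. TGI: concentration producing complete growth inhibition.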

test system: MDA-MB-231 breast; experiment: DTP human tumour cell line panel, 48 h

Compound | TGI [µM]
CCOC(=O)NC(Nc1ccc(C)cc1)(C(F)(F)F)C(F)(F)F | > 100
CCOC(=O)CCC(NC(=O)Cc1ccc(Nc2nc3cc(F)c(F)cc3nc2C(=O)OCC)cc1)C(=O)OCC (configuration not stated) | > 100
[N-]=[N+]=Nc1c([N+](=O)[O-])c(=O)n(-c2ccccc2)c2ccccc12 | 59.2

test system: COLO 205 colon; experiment: DTP human tumour cell line panel, 48 h

Compound | TGI [µM]
Cc1ccc(S(=O)(=O)c2[nH]cc(/C(=C\C3CCCCC3)[N+](=O)[O-])c2C2CCCCC2)cc1 | 0.602
Nc1ccc2c(c1)C(=O)N1CCC[C@H]1C(=O)N2 | > 100
Cc1ccc2c(c1)C(=S)N1CSCC1c1nncn1-2 (configuration not stated) | > 100
CC1(C)C(C#N)C1C1=C(N2CCOCC2)[C@]2(C)C(OC(=O)c3ccccc3)CC[C@@H]2C1 (some centres not stated) | > 100
COc1cccc(C2c3cc4c(cc3OC(N3CCCCC3)C2C)OCO4)c1O (configuration not stated) | 25.5
N#Cc1n[nH]n(-c2ccc(Br)cc2)c1=O | > 100
O=C1c2ccccc2C(=O)c2c(NCC(O)CO)ccc(NCC(O)CO)c21 (configuration not stated) | > 100
COc1cccc(C(=O)Oc2ccc(OS(=O)(=O)c3ccc(C)cc3)cc2)c1C#N | > 100
CC1=C(C)CC2C(=O)N(c3cc(C(C)(C)C)ccc3C(C)(C)C)C(=O)C2C1 (configuration not stated) | > 100
N=C(N)C1CN(CCc2c[nH]c3ccccc23)C(=O)NC1=O (configuration not stated) | > 100
O=[N+]([O-])c1ccc(CN(CCCl)OCCCl)cc1 | > 100
CC1=NN(c2nc(N)nc(/C(C#N)=C\c3ccc([N+](=O)[O-])s3)n2)C(C)(C)C1 | 1.61
O=c1[nH]cnc2c1cnn2Cc1cn(CCCCO)nn1 | > 100
CN1CCc2c([nH]c3ccccc23)C1 | > 100
Cn1c(=O)c2c(ncn2CCNC(CO)C(O)c2ccc([N+](=O)[O-])cc2)n(C)c1=O (configuration not stated) | > 100
CCCNC(=O)NNC(=O)c1c[nH]c2nc(C)ccc2c1=O | > 100
O=C(Nc1ccccc1)c1cc(S(=O)(=O)NC2=NC(c3ccccc3)c3cc(Cl)ccc3N2)c(SSc2cc(Cl)c(C(=O)Nc3ccccc3)cc2S(=O)(=O)NC2=NC(c3ccccc3)c3cc(Cl)ccc3N2)cc1Cl (configuration not stated) | > 100
COc1ccc(C2SC(N)=Nc3c2c(C)nn3C(=O)c2ccncc2)cc1OC (configuration not stated) | > 10
CC1CC(OP(=O)(OCc2ccccc2)OCc2ccccc2)[C@@H](OCc2ccccc2)C(OCc2ccccc2)C1OCc1ccccc1 (some centres not stated) | > 100
CCO/C(O)=C(/C(=N)N1CCOCC1)C(=O)Nc1ccc(F)cc1 | > 100
C[C@H]1[C@H]2[C@H]3CC[C@@H]4[C@@]5(C)CC[C@H](O)C(C)(C)[C@@H]5CC[C@@]4(C)[C@]3(C)C[C@H](O)[C@@]2(C)C[C@H]2O[C@]21C | 58.7
O=C(O)CCCc1nc2c(n1Cc1ccccc1)C(=O)c1ccccc1C2=O | > 100
CCOC(=O)NC(Nc1ccc(C)cc1)(C(F)(F)F)C(F)(F)F | > 100
CCOC(=O)CCC(NC(=O)Cc1ccc(Nc2nc3cc(F)c(F)cc3nc2C(=O)OCC)cc1)C(=O)OCC (configuration not stated) | > 100
[N-]=[N+]=Nc1c([N+](=O)[O-])c(=O)n(-c2ccccc2)c2ccccc12 | 42.3

test system: UACC-62 melanoma; experiment: DTP human tumour cell line panel, 48 h

Compound | TGI [µM]
Cc1ccc(S(=O)(=O)c2[nH]cc(/C(=C\C3CCCCC3)[N+](=O)[O-])c2C2CCCCC2)cc1 | 0.625
Nc1ccc2c(c1)C(=O)N1CCC[C@H]1C(=O)N2 | > 100
Cc1ccc2c(c1)C(=S)N1CSCC1c1nncn1-2 (configuration not stated) | > 100
CC1(C)C(C#N)C1C1=C(N2CCOCC2)[C@]2(C)C(OC(=O)c3ccccc3)CC[C@@H]2C1 (some centres not stated) | > 100
COc1cccc(C2c3cc4c(cc3OC(N3CCCCC3)C2C)OCO4)c1O (configuration not stated) | 28.2
N#Cc1n[nH]n(-c2ccc(Br)cc2)c1=O | > 100
O=C1c2ccccc2C(=O)c2c(NCC(O)CO)ccc(NCC(O)CO)c21 (configuration not stated) | > 100
COc1cccc(C(=O)Oc2ccc(OS(=O)(=O)c3ccc(C)cc3)cc2)c1C#N | > 100
CC1=C(C)CC2C(=O)N(c3cc(C(C)(C)C)ccc3C(C)(C)C)C(=O)C2C1 (configuration not stated) | 31.8
N=C(N)C1CN(CCc2c[nH]c3ccccc23)C(=O)NC1=O (configuration not stated) | > 100
O=[N+]([O-])c1ccc(CN(CCCl)OCCCl)cc1 | > 100
CC1=NN(c2nc(N)nc(/C(C#N)=C\c3ccc([N+](=O)[O-])s3)n2)C(C)(C)C1 | 2.25
O=c1[nH]cnc2c1cnn2Cc1cn(CCCCO)nn1 | > 100
CN1CCc2c([nH]c3ccccc23)C1 | > 100
Cn1c(=O)c2c(ncn2CCNC(CO)C(O)c2ccc([N+](=O)[O-])cc2)n(C)c1=O (configuration not stated) | > 100
CCCNC(=O)NNC(=O)c1c[nH]c2nc(C)ccc2c1=O | > 100
O=C(Nc1ccccc1)c1cc(S(=O)(=O)NC2=NC(c3ccccc3)c3cc(Cl)ccc3N2)c(SSc2cc(Cl)c(C(=O)Nc3ccccc3)cc2S(=O)(=O)NC2=NC(c3ccccc3)c3cc(Cl)ccc3N2)cc1Cl (configuration not stated) | > 100
COc1ccc(C2SC(N)=Nc3c2c(C)nn3C(=O)c2ccncc2)cc1OC (configuration not stated) | > 10
CC1CC(OP(=O)(OCc2ccccc2)OCc2ccccc2)[C@@H](OCc2ccccc2)C(OCc2ccccc2)C1OCc1ccccc1 (some centres not stated) | > 100
CCO/C(O)=C(/C(=N)N1CCOCC1)C(=O)Nc1ccc(F)cc1 | > 100
C[C@H]1[C@H]2[C@H]3CC[C@@H]4[C@@]5(C)CC[C@H](O)C(C)(C)[C@@H]5CC[C@@]4(C)[C@]3(C)C[C@H](O)[C@@]2(C)C[C@H]2O[C@]21C | 76
O=C(O)CCCc1nc2c(n1Cc1ccccc1)C(=O)c1ccccc1C2=O | > 100
CCOC(=O)NC(Nc1ccc(C)cc1)(C(F)(F)F)C(F)(F)F | > 100
CCOC(=O)CCC(NC(=O)Cc1ccc(Nc2nc3cc(F)c(F)cc3nc2C(=O)OCC)cc1)C(=O)OCC (configuration not stated) | > 100
[N-]=[N+]=Nc1c([N+](=O)[O-])c(=O)n(-c2ccccc2)c2ccccc12 | 59

test system: SNB-19 CNS; experiment: DTP human tumour cell line panel, 48 h

Compound | TGI [µM]
Cc1ccc(S(=O)(=O)c2[nH]cc(/C(=C\C3CCCCC3)[N+](=O)[O-])c2C2CCCCC2)cc1 | 3.98
Nc1ccc2c(c1)C(=O)N1CCC[C@H]1C(=O)N2 | > 100
Cc1ccc2c(c1)C(=S)N1CSCC1c1nncn1-2 (configuration not stated) | > 100
CC1(C)C(C#N)C1C1=C(N2CCOCC2)[C@]2(C)C(OC(=O)c3ccccc3)CC[C@@H]2C1 (some centres not stated) | > 100
